# Experimental data taken from patent US10550109B2, “Crystal form of brexpiprazole and preparation method therefor” (Zhejiang Huahai Pharmaceutical Co., Ltd, priority 2016, dated 2020).
# Assay: Comparison of stability (water content over time) of brexpiprazole solid forms at 25° C. and 60% ambient humidity
# Type: physicochemical
# Procedure: The comparation of the stability of brexpiprazole in the crystal form I, the dihydrated crystal form, the anhydrous crystal form and the amorphous form is shown in Table 1. The test in Table 1 was carried out at 25° C. and 60% ambient humidity.
Structure (SMILES),Water Content (after 1 month) (dihydrate) [wt. %],Water Content (after 2 months) (dihydrate) [wt. %],Water Content (after 3 months) (dihydrate) [wt. %],Water Content (initial) (dihydrate) [wt. %],Water Content (after 1 month) [wt. %],Water Content (after 2 months) [wt. %],Water Content (after 3 months) [wt. %],Water Content (initial) [wt. %]
"O=c1ccc2ccc(OCCCCN3CCN(c4cccc5sccc45)CC3)cc2[nH]1 [Dihydrated crystal form, 7-[4-(4-benzo[b]thiophen-4-yl-piperazin-1-yl)butoxy]-1H-quinolin-2-one dihydrate]",6.90,7.10,7.50,6.74,–,–,–,–
"O=c1ccc2ccc(OCCCCN3CCN(c4cccc5sccc45)CC3)cc2[nH]1 [Amorphous form, 7-{4-[4-(1-benzothiophen-4-yl)piperazin-1-yl]butoxy}-1H-quinolin-2-one]",–,–,–,–,0.13,0.22,0.40,0.02
"O=c1ccc2ccc(OCCCCN3CCN(c4cccc5sccc45)CC3)cc2[nH]1 [Crystal form I, 7-{4-[4-(1-benzothiophen-4-yl)piperazin-1-yl]butoxy}-1H-quinolin-2-one]",–,–,–,–,1.27,1.26,1.27,1.24
"O=c1ccc2ccc(OCCCCN3CCN(c4cccc5sccc45)CC3)cc2[nH]1 [Anhydrous crystal form, 7-[4-(4-benzo[b]thiophen-4-yl-piperazin-1-yl)butoxy]-1H-quinolin-2-one]",–,–,–,–,0.09,0.21,0.30,0.02
